Measurements published in patent publication US9278954B2, “Pyrrolidine derivatives, pharmaceutical compositions and uses thereof” (Boehringer Ingelheim International GmbH, priority 2013, dated 2016).
pIC50: −log10 of the molar value.

Target: human ACC2 (Homo sapiens (Human), UniProt O00763)
Assay: ACC2 assay (spectrophotometric 384 well assay, NADH-linked kinetic method)
Type: biochemical
Settings: hACC2 construct lacking the 128 N-terminal amino acids; 25° C., 340 nm over 15 minutes
Procedure: Spectrophotometric 384 Well Assay
Malonyl CoA formation by acetyl CoA carboxylases is stoichometrically linked to the consumption of ATP. ACC2 activity is measured in a NADH-linked kinetic method measuring ADP generated during the ACC reaction using a coupled lactate dehydrogenase/pyruvate kinase reaction.
The protein is then expressed in insect cells using a baculoviral expression system. Protein purification is performed by anion exchange.
All compounds are dissolved in dimethyl sulfoxide (DMSO) to a concentration of 10 mM.
The enzymatic reaction is then started by addition of a mixture of NADH, acetyl
Coenzyme A (both […].) and ATP (500 uM f.c.). The decrease of the optical density (slope S) is then determined at 25° C. at a wavelength of 340 nm over 15 minutes in a spectrophotometric reader.
Each assay microtiter plate contains wells with vehicle instead of compound as controls for the non-inhibited enzyme (100% CTL; ‘HIGH’) and wells without acetyl-CoA as controls for non-specific NADH degradation (0% CTL; ‘LOW’).

human ACC2, sequence (O00763 129-2458): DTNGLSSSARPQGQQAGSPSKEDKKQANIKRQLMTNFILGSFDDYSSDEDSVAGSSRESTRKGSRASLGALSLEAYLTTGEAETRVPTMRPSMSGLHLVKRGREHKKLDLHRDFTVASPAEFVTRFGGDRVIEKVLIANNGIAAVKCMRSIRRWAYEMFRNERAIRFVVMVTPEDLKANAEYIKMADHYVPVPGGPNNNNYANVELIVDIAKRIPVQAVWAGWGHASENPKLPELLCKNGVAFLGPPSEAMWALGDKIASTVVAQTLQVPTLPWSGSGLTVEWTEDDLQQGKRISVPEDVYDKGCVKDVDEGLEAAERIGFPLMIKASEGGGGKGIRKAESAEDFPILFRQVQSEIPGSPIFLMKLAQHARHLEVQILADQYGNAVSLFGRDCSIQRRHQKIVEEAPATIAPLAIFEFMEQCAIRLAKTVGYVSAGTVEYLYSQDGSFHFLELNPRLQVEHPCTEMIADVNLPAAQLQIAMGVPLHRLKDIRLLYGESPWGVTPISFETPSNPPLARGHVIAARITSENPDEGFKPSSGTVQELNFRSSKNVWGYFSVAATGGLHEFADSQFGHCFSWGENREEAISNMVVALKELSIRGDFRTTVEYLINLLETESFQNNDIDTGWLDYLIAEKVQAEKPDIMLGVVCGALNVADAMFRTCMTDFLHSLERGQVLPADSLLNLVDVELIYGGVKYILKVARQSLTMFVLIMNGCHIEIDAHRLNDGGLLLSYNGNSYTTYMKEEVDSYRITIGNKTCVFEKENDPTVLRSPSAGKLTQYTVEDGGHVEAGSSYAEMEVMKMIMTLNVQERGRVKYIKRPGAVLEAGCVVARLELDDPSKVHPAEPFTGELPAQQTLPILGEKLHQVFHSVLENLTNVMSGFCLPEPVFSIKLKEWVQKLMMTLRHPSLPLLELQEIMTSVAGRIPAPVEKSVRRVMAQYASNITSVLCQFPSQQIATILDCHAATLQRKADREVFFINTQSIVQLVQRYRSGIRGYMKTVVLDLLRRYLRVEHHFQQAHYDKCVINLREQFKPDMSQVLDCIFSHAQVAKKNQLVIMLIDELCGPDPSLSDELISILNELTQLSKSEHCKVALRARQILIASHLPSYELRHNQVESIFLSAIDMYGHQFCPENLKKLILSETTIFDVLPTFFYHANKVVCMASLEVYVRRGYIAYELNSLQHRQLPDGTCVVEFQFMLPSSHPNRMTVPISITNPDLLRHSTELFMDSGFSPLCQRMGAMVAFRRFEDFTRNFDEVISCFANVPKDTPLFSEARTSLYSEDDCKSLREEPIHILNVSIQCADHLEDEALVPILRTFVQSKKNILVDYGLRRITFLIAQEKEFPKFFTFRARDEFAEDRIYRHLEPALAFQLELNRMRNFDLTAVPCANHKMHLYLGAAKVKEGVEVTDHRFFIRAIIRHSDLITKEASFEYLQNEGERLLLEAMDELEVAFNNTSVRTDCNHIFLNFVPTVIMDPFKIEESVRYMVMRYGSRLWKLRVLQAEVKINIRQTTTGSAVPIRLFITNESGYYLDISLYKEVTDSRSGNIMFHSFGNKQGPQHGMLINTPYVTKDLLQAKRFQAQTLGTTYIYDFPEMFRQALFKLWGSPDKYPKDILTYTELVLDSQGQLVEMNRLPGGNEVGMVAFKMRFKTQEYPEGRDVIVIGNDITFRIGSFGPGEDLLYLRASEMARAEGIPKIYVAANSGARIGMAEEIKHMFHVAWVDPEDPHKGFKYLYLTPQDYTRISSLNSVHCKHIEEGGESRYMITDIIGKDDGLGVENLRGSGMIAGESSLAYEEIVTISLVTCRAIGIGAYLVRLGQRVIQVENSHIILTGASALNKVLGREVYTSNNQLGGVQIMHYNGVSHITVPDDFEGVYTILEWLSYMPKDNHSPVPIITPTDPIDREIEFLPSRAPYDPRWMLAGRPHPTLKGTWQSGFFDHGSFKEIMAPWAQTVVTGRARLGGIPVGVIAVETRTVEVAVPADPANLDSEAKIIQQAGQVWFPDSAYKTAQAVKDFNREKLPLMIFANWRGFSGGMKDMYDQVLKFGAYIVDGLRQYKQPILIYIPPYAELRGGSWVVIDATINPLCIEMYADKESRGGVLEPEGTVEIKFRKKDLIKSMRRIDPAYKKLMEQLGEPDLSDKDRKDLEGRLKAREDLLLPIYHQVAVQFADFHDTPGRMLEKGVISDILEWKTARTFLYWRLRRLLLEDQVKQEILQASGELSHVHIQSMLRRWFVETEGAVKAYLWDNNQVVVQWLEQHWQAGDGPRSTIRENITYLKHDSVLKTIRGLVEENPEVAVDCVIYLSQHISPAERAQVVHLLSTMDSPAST

Row | Compound | pIC50
1 | CC(C(=O)NC1CC1C)c1ccc(O[C@@H]2CCN(c3nc(N(C)C)ncc3F)C2)cc1 (single isomer, unassigned) [6.2 isomer 1] | 7.07
2 | CC(C(=O)NC1CC1C)c1ccc(O[C@@H]2CCN(c3nc(N(C)C)ncc3F)C2)cc1 (single isomer, unassigned) [6.2 isomer 2] | 6.75
3 | CC(C(=O)NC1CC1C)c1ccc(O[C@@H]2CCN(c3nc(N(C)C)ncc3F)C2)cc1 (single isomer, unassigned) [6.2 isomer 3] | 6.66
4 | CC(C(=O)NC1CC1C)c1ccc(O[C@@H]2CCN(c3nc(N(C)C)ncc3F)C2)cc1 (single isomer, unassigned) [6.2 isomer 4] | 5.83
5 | CCNC(=O)C(C)c1ccc(O[C@@H]2CCN(c3ncnc(OCC(C)(C)O)c3Cl)C2)cc1 (single isomer, unassigned) [6.3 isomer 1] | 7.02
6 | CCNC(=O)C(C)c1ccc(O[C@@H]2CCN(c3ncnc(OCC(C)(C)O)c3Cl)C2)cc1 (single isomer, unassigned) [6.3 isomer 2] | 5.96
7 | CC(C(=O)NC1CC1C)c1ccc(O[C@@H]2CCN(c3ncnc(OCC(C)(C)O)c3Cl)C2)cc1 (single isomer, unassigned) [6.4 isomer 1] | 6.92
8 | CC(C(=O)NC1CC1C)c1ccc(O[C@@H]2CCN(c3ncnc(OCC(C)(C)O)c3Cl)C2)cc1 (single isomer, unassigned) [6.4 isomer 2] | 6.17
9 | CC(C(=O)NC1CC1C)c1ccc(O[C@@H]2CCN(c3ncnc(OCC(C)(C)O)c3Cl)C2)cc1 (single isomer, unassigned) [6.4 isomer 3] | 6.90
10 | CC(C(=O)NCC(F)F)c1ccc(O[C@@H]2CCN(c3ncnc(OCC(C)(C)O)c3Cl)C2)cc1 (single isomer, unassigned) [6.5 isomer 1] | 6.87
11 | CC(C(=O)NCC(F)F)c1ccc(O[C@@H]2CCN(c3ncnc(OCC(C)(C)O)c3Cl)C2)cc1 (single isomer, unassigned) [6.5 isomer 2] | 6.06
12 | CCNC(=O)C(C)c1ccc(O[C@@H]2CCN(c3nc(N(C)C)ncc3F)C2)cc1 (single isomer, unassigned) [6.6 isomer 1] | 6.90
13 | CCCNc1nccc(N2CC[C@@H](Oc3ccc(C(C)C(=O)NC4CC4C)cc3)C2)c1F (single isomer, unassigned) [Example 1.3] | 7.00
14 | CCCNc1nccc(N2CC[C@@H](Oc3ccc(C(C)C(=O)NC4CC4C)cc3)C2)c1F (single isomer, unassigned) [Example 1.4] | 6.93
15 | CCCNc1nccc(N2CC[C@@H](Oc3ccc(C(C)C(=O)NC4CC4)cc3)C2)c1F (some centres unmarked) [Example 1.2] | 7.21
16 | CC(C(=O)NC1CC1)c1ccc(O[C@@H]2CCN(c3ncnc(OCC(C)(F)F)c3F)C2)cc1 (some centres unmarked) [Example 1.5] | 6.88
17 | CC(C(=O)NC1CC1)c1ccc(O[C@@H]2CCN(c3nc(N(C)C)ncc3F)C2)cc1 (some centres unmarked) [Example 1.7] | 6.77
18 | CC(C(=O)NC1CC1)c1ccc(O[C@@H]2CCN(c3ccc(OCC4CC4(F)F)cn3)C2)cc1 (some centres unmarked) [Example 1.8] | 6.75
19 | CC(C(=O)NC1CC1C)c1ccc(O[C@@H]2CCN(c3nc(N(C)C)ncc3F)C2)cc1 (some centres unmarked) [Example 1.9] | 6.71
20 | CC(C(=O)NC1CC1C)c1ccc(O[C@@H]2CCN(c3ccc(OCC4CC4(F)F)cn3)C2)cc1 (some centres unmarked) [Example 1.10] | 6.69
21 | CCCNc1nccc(N2CC[C@@H](Oc3ccc(C(C)C(=O)NCC)cc3)C2)c1F (some centres unmarked) [Example 1.11] | 6.67
22 | CC(C(=O)NC1CC1C)c1ccc(O[C@@H]2CCN(c3ccc(OCC4CC4(F)F)cn3)C2)cc1 (some centres unmarked) [Example 1.12] | 6.66
23 | CC(C(=O)NC1CC1C)c1ccc(O[C@@H]2CCN(c3ncnc(OCC(C)(C)O)c3Cl)C2)cc1 (some centres unmarked) [Example 1.13] | 6.63
24 | CC(C(=O)NC1CC1C)c1ccc(O[C@@H]2CCN(c3ncnc(OCC(C)(F)F)c3F)C2)cc1 (some centres unmarked) [Example 1.14] | 6.61
25 | CC(C(=O)NCC(F)F)c1ccc(O[C@@H]2CCN(c3ccc(OCC4CC4(F)F)cn3)C2)cc1 (some centres unmarked) [Example 1.15] | 6.58

Row | Compound | pIC50
26 | C#CCNC(=O)C(C)c1ccc(O[C@@H]2CCN(c3ccnc(NCCC)c3F)C2)cc1 (some centres unmarked) [Example 1.16] | 6.58
27 | CCNC(=O)C(C)c1ccc(O[C@@H]2CCN(c3ncnc(OCC(C)(C)O)c3Cl)C2)cc1 (some centres unmarked) [Example 1.17] | 6.57
28 | C=C(C)CNC(=O)C(C)c1ccc(O[C@@H]2CCN(c3ccnc(NCCC)c3F)C2)cc1 (some centres unmarked) [Example 1.18] | 6.54
29 | CCCNc1nccc(N2CC[C@@H](Oc3ccc(C(C)C(=O)NCCF)cc3)C2)c1F (some centres unmarked) [Example 1.19] | 6.53
30 | C#CCNC(=O)C(C)c1ccc(O[C@@H]2CCN(c3ncnc(OCC(C)(C)O)c3Cl)C2)cc1 (some centres unmarked) [Example 1.20] | 6.51
31 | CCCNc1nccc(N2CC[C@@H](Oc3ccc(C(C)C(=O)NCC(F)F)cc3)C2)c1F (some centres unmarked) [Example 1.21] | 6.51
32 | CC(C(=O)NC1CC1C)c1ccc(O[C@@H]2CCN(c3ncnc(OCC(C)(F)F)c3F)C2)cc1 (some centres unmarked) [Example 1.22] | 6.51
33 | C=C(C)CNC(=O)C(C)c1ccc(O[C@@H]2CCN(c3ncnc(OCC(C)(C)O)c3Cl)C2)cc1 (some centres unmarked) [Example 1.23] | 6.50
34 | CCCNc1nccc(N2CC[C@@H](Oc3ccc(C(C)C(=O)NC(C)C)cc3)C2)c1F (some centres unmarked) [Example 1.24] | 6.50
35 | C=CCNC(=O)C(C)c1ccc(O[C@@H]2CCN(c3ncnc(OCC(C)(C)O)c3Cl)C2)cc1 (some centres unmarked) [Example 1.25] | 6.49
36 | CC(C(=O)NC1CC1C)c1ccc(O[C@@H]2CCN(c3ncnc(OCC(C)(C)O)c3Cl)C2)cc1 (some centres unmarked) [Example 1.26] | 6.49
37 | CCNC(=O)C(C)c1ccc(O[C@@H]2CCN(c3nc(N(C)C)ncc3F)C2)cc1 (some centres unmarked) [Example 1.27] | 6.46
38 | CNC(=O)C(C)c1ccc(O[C@@H]2CCN(c3ccc(OCC4CC4(F)F)cn3)C2)cc1 (some centres unmarked) [Example 1.28] | 6.46
39 | CCCNc1nccc(N2CC[C@@H](Oc3ccc(C(C)C(=O)N[C@H](C)CC)cc3)C2)c1F (some centres unmarked) [Example 1.29] | 6.44
40 | CCNC(=O)C(C)c1ccc(O[C@@H]2CCN(c3ncnc(OCC(C)(F)F)c3F)C2)cc1 (some centres unmarked) [Example 1.30] | 6.42
41 | C=CCNC(=O)C(C)c1ccc(O[C@@H]2CCN(c3ccc(OCC4CC4(F)F)cn3)C2)cc1 (some centres unmarked) [Example 1.31] | 6.42
42 | CCCNC(=O)C(C)c1ccc(O[C@@H]2CCN(c3ccnc(NCCC)c3F)C2)cc1 (some centres unmarked) [Example 1.32] | 6.40
43 | CCCNc1nccc(N2CC[C@@H](Oc3ccc(C(C)C(=O)Nc4cccnc4)cc3)C2)c1F (some centres unmarked) [Example 1.35] | 6.39
44 | CC(C(=O)NCC(F)F)c1ccc(O[C@@H]2CCN(c3ncnc(OCC(C)(C)O)c3Cl)C2)cc1 (some centres unmarked) [Example 1.36] | 6.38
45 | C=C(C)CNC(=O)C(C)c1ccc(O[C@@H]2CCN(c3ccc(OCC4CC4(F)F)cn3)C2)cc1 (some centres unmarked) [Example 1.37] | 6.38
46 | CCCNC(=O)C(C)c1ccc(O[C@@H]2CCN(c3ncnc(OCC(C)(C)O)c3Cl)C2)cc1 (some centres unmarked) [Example 1.40] | 6.36
47 | CCCNc1nccc(N2CC[C@@H](Oc3ccc(C(C)C(=O)NC4CCC4)cc3)C2)c1F (some centres unmarked) [Example 1.41] | 6.36
48 | C#CCNC(=O)C(C)c1ccc(O[C@@H]2CCN(c3ncnc(OCC(C)(F)F)c3F)C2)cc1 (some centres unmarked) [Example 1.42] | 6.36
49 | CC(C(=O)NCC(F)F)c1ccc(O[C@@H]2CCN(c3nc(N(C)C)ncc3F)C2)cc1 (some centres unmarked) [Example 1.43] | 6.35
50 | C=C(C)CNC(=O)C(C)c1ccc(O[C@@H]2CCN(c3nc(N(C)C)ncc3F)C2)cc1 (some centres unmarked) [Example 1.44] | 6.34
